Results taken from patent publication US20110288052A1, “NOVEL COMPOUNDS, PHARMACEUTICAL COMPOSITIONS CONTAINING SAME, AND METHODS OF USE FOR SAME” (priority 2008, published 2011).
Converted amounts (≈) assume the structure as drawn. Read-outs that look alike come from different tables or passages of the source.

What was measured:
[1] = biological target: T1, Human FAS purified from ZR-75-1 human breast cancer cells (Homo sapiens, UniProt P49327); experiment: FAS enzymatic activity (malonyl-CoA dependent NADPH oxidation); format: biochemical; details: (SB)
T1 construct: Human FAS was purified from cultured ZR-75-1 human breast cancer cells; endogenous in cells; host or cells: ZR-75-1 human breast cancer cells (ATCC); enzyme purified by hypotonic lysis, PEG precipitation and Mono Q anion exchange
T1 sequence (P49327 2-2511 limits assumed): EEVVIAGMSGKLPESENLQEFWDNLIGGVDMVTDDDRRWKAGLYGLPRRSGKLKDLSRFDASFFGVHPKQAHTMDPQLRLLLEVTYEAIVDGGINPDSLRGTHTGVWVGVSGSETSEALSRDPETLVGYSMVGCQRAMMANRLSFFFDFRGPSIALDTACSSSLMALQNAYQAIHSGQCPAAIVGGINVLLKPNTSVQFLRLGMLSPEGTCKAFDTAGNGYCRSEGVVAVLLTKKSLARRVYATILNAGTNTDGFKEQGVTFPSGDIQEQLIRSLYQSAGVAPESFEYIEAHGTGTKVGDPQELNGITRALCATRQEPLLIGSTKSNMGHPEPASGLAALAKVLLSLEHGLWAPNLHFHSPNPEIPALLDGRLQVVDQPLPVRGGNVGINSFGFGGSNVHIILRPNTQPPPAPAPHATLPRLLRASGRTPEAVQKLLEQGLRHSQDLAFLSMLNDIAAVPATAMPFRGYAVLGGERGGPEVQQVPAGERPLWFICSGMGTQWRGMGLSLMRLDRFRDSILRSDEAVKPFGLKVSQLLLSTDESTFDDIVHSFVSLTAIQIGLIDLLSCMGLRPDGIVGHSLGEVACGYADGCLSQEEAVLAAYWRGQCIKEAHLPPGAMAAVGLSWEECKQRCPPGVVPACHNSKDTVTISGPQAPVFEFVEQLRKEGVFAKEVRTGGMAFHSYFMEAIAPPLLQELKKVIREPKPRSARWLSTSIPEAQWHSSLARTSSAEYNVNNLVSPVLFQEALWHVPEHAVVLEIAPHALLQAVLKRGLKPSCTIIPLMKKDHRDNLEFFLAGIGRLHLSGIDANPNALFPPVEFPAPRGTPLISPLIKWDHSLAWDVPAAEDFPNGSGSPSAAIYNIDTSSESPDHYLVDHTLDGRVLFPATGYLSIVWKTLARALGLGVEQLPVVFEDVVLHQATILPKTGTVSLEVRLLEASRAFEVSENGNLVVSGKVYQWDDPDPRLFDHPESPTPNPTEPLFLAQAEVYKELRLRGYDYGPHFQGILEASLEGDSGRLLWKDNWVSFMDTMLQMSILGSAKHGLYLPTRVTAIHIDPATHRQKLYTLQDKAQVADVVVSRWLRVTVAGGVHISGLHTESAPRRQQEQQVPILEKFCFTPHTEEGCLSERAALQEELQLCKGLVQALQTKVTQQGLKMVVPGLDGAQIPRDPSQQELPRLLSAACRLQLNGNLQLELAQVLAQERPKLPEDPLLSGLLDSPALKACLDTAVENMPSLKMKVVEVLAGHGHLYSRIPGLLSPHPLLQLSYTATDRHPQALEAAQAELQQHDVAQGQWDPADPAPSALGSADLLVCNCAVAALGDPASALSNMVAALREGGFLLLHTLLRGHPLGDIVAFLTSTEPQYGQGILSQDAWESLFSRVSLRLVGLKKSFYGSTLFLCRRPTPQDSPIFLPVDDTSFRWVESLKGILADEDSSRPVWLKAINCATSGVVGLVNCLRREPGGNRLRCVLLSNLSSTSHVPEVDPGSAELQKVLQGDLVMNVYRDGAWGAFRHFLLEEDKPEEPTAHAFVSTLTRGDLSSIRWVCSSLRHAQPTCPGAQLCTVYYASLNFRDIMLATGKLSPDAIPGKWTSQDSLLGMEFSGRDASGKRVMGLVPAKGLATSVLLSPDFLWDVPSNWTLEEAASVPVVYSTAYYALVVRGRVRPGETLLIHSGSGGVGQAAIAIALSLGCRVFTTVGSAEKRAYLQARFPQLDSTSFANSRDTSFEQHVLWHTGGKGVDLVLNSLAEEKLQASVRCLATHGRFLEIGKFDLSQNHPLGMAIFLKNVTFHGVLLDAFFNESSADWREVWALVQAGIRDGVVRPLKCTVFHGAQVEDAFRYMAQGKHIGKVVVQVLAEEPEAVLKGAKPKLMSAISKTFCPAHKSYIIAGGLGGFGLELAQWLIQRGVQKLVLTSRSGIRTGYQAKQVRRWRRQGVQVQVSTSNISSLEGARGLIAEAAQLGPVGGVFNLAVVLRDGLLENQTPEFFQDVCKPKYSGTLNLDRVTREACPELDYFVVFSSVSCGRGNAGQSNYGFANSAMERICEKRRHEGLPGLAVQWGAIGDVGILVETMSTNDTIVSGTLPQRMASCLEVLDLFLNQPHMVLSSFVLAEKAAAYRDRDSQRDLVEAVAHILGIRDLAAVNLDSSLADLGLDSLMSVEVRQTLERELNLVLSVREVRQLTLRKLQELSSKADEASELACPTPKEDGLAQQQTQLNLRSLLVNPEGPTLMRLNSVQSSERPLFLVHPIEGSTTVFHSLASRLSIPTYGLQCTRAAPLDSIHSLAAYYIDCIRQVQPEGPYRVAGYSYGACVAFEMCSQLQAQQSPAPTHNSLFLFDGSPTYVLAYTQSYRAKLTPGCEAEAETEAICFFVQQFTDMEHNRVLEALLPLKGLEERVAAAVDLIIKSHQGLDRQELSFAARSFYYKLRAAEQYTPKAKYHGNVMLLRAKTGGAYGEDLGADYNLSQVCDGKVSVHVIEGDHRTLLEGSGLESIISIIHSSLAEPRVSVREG
Description: Purification of FAS from ZR-75-1 Human Breast Cancer Cells. Human FAS was purified from cultured ZR-75-1 human breast cancer cells obtained from the American Type Culture Collection. The procedure, adapted from Linn et al., 1981, and Kuhajda et al., 1994, utilizes hypotonic lysis, successive polyethyleneglycol (PEG) precipitations, and anion exchange chromatography. ZR-75-1 cells are cultured at 37° C. with 5% CO2 in RPMI culture medium with 10% fetal bovine serum, penicillin and streptomycin.
Ten T150 flasks of confluent cells are lysed with 1.5 ml lysis buffer (20 mM Tris-HCl, pH 7.5, 1 mM EDTA, 0.1 mM phenylmethanesulfonyl fluoride (PMSF), 0.1% Igepal CA-630) and bounce homogenized on ice for 20 strokes. […] FAS protein concentration is determined using the Coomassie Plus Protein Assay Reagent (Pierce) according to manufacturer's specifications using BSA as a standard. […]
Measurement of FAS Enzymatic Activity and Determination of the IC50 of the Compounds FAS activity is measured by monitoring the malonyl-CoA dependent oxidation of NADPH spectrophotometrically at OD340 in 96-well plates (Dils et al and Arslanian et al, 1975). […]
The assay is performed on a Molecular Devices SpectraMax Plus Spectrophotometer. […] The plate is read again as above with the kinetic protocol to measure the malonyl-CoA dependent NADPH oxidation. […]

[2] = test system: Staphylococcus aureus (ATCC # 29213); experiment: Broth microdilution antimicrobial assay, S. aureus; format: cell-based
Description: Antimicrobial Properties A broth microdilution assay is used to assess the antimicrobial activity of the compounds. Compounds are tested at twofold serial dilutions, and the concentration that inhibits visible growth (OD600 at 10% of control) is defined as the MIC. Microorganisms tested include Staphylococcus aureus (ATCC # 29213), Enterococcus faecalis (ATCC # 29212), Pseudomonas aerpginosa (ATCC # 27853), and Escherichia coli (ATCC # 25922). The assay is performed in two growth media, Mueller Hinton Broth and Trypticase Soy Broth.
A blood (Tsoy/5% sheep blood) agar plate is inoculated from frozen stocks maintained in T soy broth containing 10% glycerol and incubated overnight at 37° C. Colonies are suspended in sterile broth so that the turbidity matches the turbidity of a 0.5 McFarland standard. The inoculum is diluted 1:10 in sterile broth (Mueller Hinton or Trypticase soy) and 195 μl is dispensed per well of a 96-well plate. The compounds to be tested, dissolved in DMSO, are added to the wells in 5 μl volume at the following concentrations: 25, 12.5, 6.25, 3.125, 1.56 and 0.78 μg/ml in duplicate. Additional concentrations are tested if required. 5 μl of DMSO added to duplicate wells are the vehicle control. Serial dilutions of positive control compounds, vancomycin (E. faecalis and S. aureus) and tobramycin (E. coli and P. aerpginosa), are included in each run.
After 24 hours of incubation at 37° C., plates are read at OD600 on a Molecular Devices SpectraMax Plus Spectrophotometer. Average OD600 values are computed using SOFTmax Pro Software (Molecular Devices) and MIC values are determined by linear regression analysis using Prism version 3.02 (Graph Pad Software, San Diego). The MIC is defined as the concentration of compound required to produce an OD600 reading equivalent to 10% of the vehicle control reading.

[3] = ATCC29213, Mueller Hinton Broth, read-out: SA/MH (MIC)
[4] = ATCC29213, Trypticase Soy Broth, read-out: SA/Tsoy (MIC)

Structure (SMILES) | IC50 [1] | MIC [2, 3] | MIC [2, 4] | FAS (IC50) [1]
CCCCCCCCC1(C)SC(=O)C=C1OCC(=O)Nc1ccc(Cl)cc1 (stereo not drawn) | 266 µM | 6 µg/mL (≈ 14.6 µM) | 3 µg/mL (≈ 7.32 µM) | –
CCCCCCCCC1(C)SC(=O)C=C1OCC(=O)Nc1ccc(Cl)cc1Cl (stereo not drawn) | – | – | – | Neg (SB)
CCCCCCCCC1(C)OC(=O)C=C1OCC(=O)Nc1ccc(Cl)cc1 (stereo not drawn) | – | 6 µg/mL (≈ 15.2 µM) | 3 µg/mL (≈ 7.62 µM) | –
